US8680049B2 (Zealand Pharma A/S, priority 2008, dated 2014)

How the values were obtained:
human GLP-1-R = molecular target: T1, human GLP-1-R (Homo sapiens, UniProt P43220); experiment: GLP-1 receptor efficacy assay (cAMP, HEK293 cells); assay type: cell-based; on EC50: crude peptides with purity of less than 90%
T1 construct: expressed in transfected cells
Procedure: (§1) The 5′-end primers additionally encoded a near Kozak consensus sequence to ensure efficient translation.
(§2) 48 hr after transfection cells were seeded for limited dilution cloning and selected with 1 mg/ml G418 in the culture medium.
(§3) On the day of analysis, growth medium was removed and the cells washed once with 200 μl Tyrode buffer. Cells were incubated in 100 μl Tyrode buffer containing increasing concentrations of test peptides, 100 μM IBMX, and 6 mM glucose for up 15 min at 37° C. The reaction was stopped by addition of 25 μl 0.5 M HCl and incubated on ice for 60 min. The cAMP content was estimated using the FlashPlate® cAMP kit from Perkin-Elmer.

human Glucagon-R = molecular target: T2, human Glucagon-R (Homo sapiens, UniProt P47871); experiment: Glucagon receptor efficacy assay (cAMP, HEK293 cells); assay type: cell-based; details: read-out: GLUR EC50; further: crude peptides with purity of less than 90%
T2 construct: expressed in transfected cells
T2 sequence (P47871 26-477): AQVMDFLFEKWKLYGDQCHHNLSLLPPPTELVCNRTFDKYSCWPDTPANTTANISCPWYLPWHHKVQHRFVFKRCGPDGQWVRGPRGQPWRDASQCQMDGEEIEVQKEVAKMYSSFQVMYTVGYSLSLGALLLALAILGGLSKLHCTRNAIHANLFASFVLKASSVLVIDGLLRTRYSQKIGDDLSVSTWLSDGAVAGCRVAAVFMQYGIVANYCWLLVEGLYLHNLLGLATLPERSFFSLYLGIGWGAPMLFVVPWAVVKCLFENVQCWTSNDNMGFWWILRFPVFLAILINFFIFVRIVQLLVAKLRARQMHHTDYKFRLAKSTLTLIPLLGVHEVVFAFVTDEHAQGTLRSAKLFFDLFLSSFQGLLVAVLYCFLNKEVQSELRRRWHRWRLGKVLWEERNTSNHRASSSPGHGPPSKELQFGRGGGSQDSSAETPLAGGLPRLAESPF
Procedure: as §1, §2, §3

primary rat adipocytes = assay type: cell-based
Procedure: Adipocytes were isolated from epididymal fat dissected from normal young adult Sprague-Dawley rats. The fat lumps were minced, incubated and shaken (220 rpm) with collagenase (1 mg/ml) in Krebs-Ringer buffer containing 4% BSA (KRB-BSA) for 60 minutes at 37° C. The suspension was filtered through a nylon filter (160 μm pore size) and the filtrate centrifuged at 200×g for 3 min. The subjacent medium beneath the upper floating layer of adipocytes was removed with a Pasteur-pipette. The adipocytes were washed 3 times in KRB-BSA buffer by re-suspension and centrifugation. The adipocytes were re-suspended in KRB-BSA, mixed, incubated in and shaken with test compounds in 96-deep well plates (50,000 cells/well) in a total volume of 1 ml at 37° C. for 60 min. The plates were placed on ice for at least 10 min after incubation followed by centrifugation at 200×g for 3 min. 300 μl of the buffer beneath the adipocyte layer were collected in a 96-deep well plate. This process was repeated two more times and the 3 extracts collected from each culture pooled together.

C57Bl/6 mice = experiment: Food intake in normal mice; assay type: in vivo; details: fasted mice, s.c.; PYY3-36 30 nmol/kg, glucagon 500 nmol/kg, ZP2663 500 nmol/kg
Procedure: One week before study C57Bl/6 mice (8 weeks) (N=9-12 animals in each group) were conditioned to treatment by daily injections (s.c.) of 0.2 ml vehicle and acclimatized to handling by weighing them twice a week. Mice were stratified one day before start of experiment into groups with similar body weight (BW). […] After one hour pre-weighed food was introduced to the mice and food intake measured by weighing the remaining food after one hour and expressed relative to body weight (mg food/g BW). Statistical analyses of food intake data by one-way ANOVA and Dunnetts post-hoc analyses were performed with GraphPad Prism version 4. Differences were considered significant at the 0.05 level.

db/db mice = experiment: Oral glucose tolerance test (OGTT) in db/db mice; assay type: in vivo; details: i.p., 45 nmol/kg
Procedure: The animals were kept fasted during the experiment to prevent confounding food intake. Fifteen minutes later an oral dose of glucose (1 g/kg in 5 ml/kg) was given and BG levels were measured at t=30 min, t=60 min, t=120 min and t=240 min.
Difference from baseline (t=0) was calculated for each time point and AUC0-240 min values were determined. Statistical analyses of AUC values by one-way ANOVA and Dunnetts post-hoc analyses were performed with GraphPad Prism version 4. Differences were considered significant at the p<0.05 level.

[1] = tested on: diet induced obese (DIO) mice; experiment: 28 day treatment of diet induced obese (DIO) mice: body weight and plasma cholesterols; assay type: in vivo
Procedure: Four weeks before drug treatments, C57Bl/6 male mice (7 weeks) (N=9-12 animals in each group) were put on high fat diet (HFD) and their day-night cycle reversed with lights On/Off at 2000/0800 hour. Experimental animals were conditioned to treatment by daily injections (s.c.) of 0.1 ml vehicle and acclimatized to handling by weighing them twice a week one week before start of drug administrations. […] Animals were fasted overnight before sacrifice. An eye blood sample (0.6 ml EDTA) was obtained the following morning immediately before cervical dislocation. Blood plasma samples were stored at −80° C. until analyzed for cholesterol, HDL and LDL using commercially available kits. Body weight gain throughout the treatment period was calculated for each animal by subtracting its weight at the initiation of treatment.
The effects of treatment on body weight gain and cholesterols were assessed by 2-way ANOVA with repeated measures and Bonferoni post-hoc analyses, using GraphPad Prism version 4. Differences were considered significant at the 0.05 level.

T1 sequence (P43220 24-463): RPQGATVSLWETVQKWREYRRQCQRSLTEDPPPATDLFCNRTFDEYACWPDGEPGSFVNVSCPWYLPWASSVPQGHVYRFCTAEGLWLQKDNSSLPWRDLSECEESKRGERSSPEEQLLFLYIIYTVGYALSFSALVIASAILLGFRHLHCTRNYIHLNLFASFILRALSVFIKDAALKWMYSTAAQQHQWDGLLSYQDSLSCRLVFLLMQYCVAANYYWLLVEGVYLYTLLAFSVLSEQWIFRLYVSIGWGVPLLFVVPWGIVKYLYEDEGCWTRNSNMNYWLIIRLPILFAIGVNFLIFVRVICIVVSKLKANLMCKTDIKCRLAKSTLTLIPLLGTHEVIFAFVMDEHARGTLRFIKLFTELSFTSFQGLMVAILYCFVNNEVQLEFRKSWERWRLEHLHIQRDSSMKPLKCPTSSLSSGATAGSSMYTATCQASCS

| Compound | EC50 (human GLP-1-R) | EC50 (human Glucagon-R) | further results |
| --- | --- | --- | --- |
| H-HSQGTFTSDYSKYLDERRAKDFIEWLLRA-NH2 [Compound L006-0138] | 0.29 nM | 0.38 nM |  |
| H-HSQGTFTSDYSKYLDERAAKDFIEWLLSA-NH2 [Compound L006-0108] | 0.53 nM | 0.81 nM |  |
| H-HSQGTFTSDYSKYLDSRRAKDFIEWLLSA-NH2 [Compound L006-0081] | 0.14 nM | 0.23 nM |  |
| H-HSQGTFTSDYSKYLDKRRAEDFIKWLLSA-NH2 [Compound L006-0094] | 0.16 nM | 0.25 nM |  |
| H-HSQGTFTSDYSKYLDERRAKDFIQWLLSA-NH2 [Compound L006-0084] | 0.07 nM | 0.13 nM |  |
| H-HSQGTFTSDYSKYLDERRAKDFIRWLLSA-NH2 [Compound L006-0128] | 0.16 nM | 0.22 nM |  |
| CC[C@H](C)[C@H](NC(=O)[C@H](Cc1ccccc1)NC(=O)[C@H](CC(=O)O)NC(=O)[C@H](CCCCN)NC(=O)[C@H](C)NC(=O)[C@H](CCCNC(=N)N)NC(=O)[C@H](CCCNC(=N)N)NC(=O)[C@H](CCC(=O)O)NC(=O)[C@H](CC(=O)O)NC(=O)[C@H](CC(C)C)NC(=O)[C@H](Cc1ccc(O)cc1)NC(=O)[C@H](CCCCN)NC(=O)[C@H](CO)NC(=O)[C@H](Cc1ccc(O)cc1)NC(=O)[C@H](CC(=O)O)NC(=O)[C@H](CO)NC(=O)[C@@H](NC(=O)[C@H](Cc1ccccc1)NC(=O)[C@@H](NC(=O)CNC(=O)[C@H](CCC(N)=O)NC(=O)[C@H](CO)NC(=O)[C@@H](N)Cc1c[nH]cn1)[C@@H](C)O)[C@@H](C)O)C(=O)N[C@@H](CCC(=O)O)C(=O)N[C@@H](Cc1c[nH]c2ccccc12)C(=O)N[C@@H](CC(C)C)C(=O)N[C@@H](CC(C)C)C(=O)N[C@@H](CO)C(=O)N[C@@H](C)C(N)=O [ZP2663] |  |  | EC50 (primary rat adipocytes): 4.4 nM; effect on lipolysis in primary adipocyte cultures (in words) (primary rat adipocytes): equipotent with glucagon; food intake during the first hour (in words) (C57Bl/6 mice): significantly decreased food intake; improvement of glucose tolerance (db/db mice): 64.9%; glucose tolerance during OGTT (in words) (db/db mice; AUC0-240 min): significantly improved glucose tolerance; body weight gain (in words) ([1]; 500 nmol/kg b.i.d. s.c., 28 days): decreased body weight gain to a level similar to that observed with chow feeding; blood concentration of LDL cholesterol vs vehicle (in words) ([1]; 4 weeks b.i.d.): statistically significantly different from the vehicle group; fat deposition (in words) ([1]; 4 weeks treatment): significantly decreased fat deposition |
| CC[C@H](C)[C@H](NC(=O)[C@H](Cc1ccccc1)NC(=O)[C@H](CC(=O)O)NC(=O)[C@H](CCC(N)=O)NC(=O)[C@H](C)NC(=O)[C@H](CCCNC(=N)N)NC(=O)[C@H](CCCNC(=N)N)NC(=O)[C@H](CO)NC(=O)[C@H](CC(=O)O)NC(=O)[C@H](CC(C)C)NC(=O)[C@H](Cc1ccc(O)cc1)NC(=O)[C@H](CCCCN)NC(=O)[C@H](CO)NC(=O)[C@H](Cc1ccc(O)cc1)NC(=O)[C@H](CC(=O)O)NC(=O)[C@H](CO)NC(=O)[C@@H](NC(=O)[C@H](Cc1ccccc1)NC(=O)[C@@H](NC(=O)CNC(=O)[C@H](CCC(N)=O)NC(=O)[C@H](CO)NC(=O)[C@@H](N)Cc1c[nH]cn1)[C@@H](C)O)[C@@H](C)O)C(=O)N[C@@H](CCC(=O)O)C(=O)N[C@@H](Cc1c[nH]c2ccccc12)C(=O)N[C@@H](CC(C)C)C(=O)N[C@@H](CC(C)C)C(=O)N[C@@H](CO)C(=O)N[C@@H](C)C(N)=O [Compound L006-0090] | 0.15 nM | 0.22 nM |  |
| H-HSQGTFTSDYSKYLDERRAKDFIDWLLSA-NH2 [Compound L006-0129] | 0.2 nM | 0.24 nM |  |
| H-HSQGTFTSDYSKYLDERRAQDFIEWLLSA-NH2 [Compound L006-0082] | 0.09 nM |  |  |
| H-HSQGTFTSDYSKYLDERRAKDFIEWLLAA-NH2 [Compound L006-0136] | 0.22 nM | 0.33 nM |  |
| Exendin-4 |  |  | EC50, stimulation of lipolysis in primary rat adipocyte cultures (primary rat adipocytes; 60 min, glycerol formed): No effect; GLP-1R agonist activity (in words) (human GLP-1-R): very potent GLP-1R agonist |
| H-HSQGTFTSDYSKYLDDRRARDFIDWLLSA-NH2 [Compound L006-0093] | 0.07 nM | 0.1 nM |  |
| PYY(3-36): internal positive control for food intake (anorectic peptide) [reference compound] |  |  | food intake during the first hour (in words) (C57Bl/6 mice): anorectic effect |
